# Patent publication US20240158370A1, “CK1 alpha AND DUAL CK1 alpha / GSPT1 DEGRADING COMPOUNDS” (Innovo Therapeutics, Inc., priority 2022, published 2024)
# What was measured:
# CK1α = biological target: T1, CK1α (Homo sapiens, UniProt P48729+Q96SW2); test: HiBiT degradation assay, CK1α, Procedure A; format: cell-based; conditions: six hours incubation
# T1 construct: CSNK1A1-HiBit KI HEK293(LgBit) Cells; host or cells: HEK293(LgBit) knock-in cells
# Summary of the method: (§1)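 Six-hour treatment at 37° C, ten doses between 10 μM and 0.005 μM, then HiBiT lytic luminescence. Fitted DC50 and Ymin.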
# GSPT1 = GSPT1 (Homo sapiens, UniProt P15170+Q96SW2); test: HiBiT degradation assay, GSPT1, Procedure A; format: cell-based; design: HiBit-GSPT1 KI HEK293(LgBit) Cells; host or cells: HEK293(LgBit) knock-in cells; conditions: six hours incubation
# Summary of the method: as §1
# T1 sequence (P48729 whole entry): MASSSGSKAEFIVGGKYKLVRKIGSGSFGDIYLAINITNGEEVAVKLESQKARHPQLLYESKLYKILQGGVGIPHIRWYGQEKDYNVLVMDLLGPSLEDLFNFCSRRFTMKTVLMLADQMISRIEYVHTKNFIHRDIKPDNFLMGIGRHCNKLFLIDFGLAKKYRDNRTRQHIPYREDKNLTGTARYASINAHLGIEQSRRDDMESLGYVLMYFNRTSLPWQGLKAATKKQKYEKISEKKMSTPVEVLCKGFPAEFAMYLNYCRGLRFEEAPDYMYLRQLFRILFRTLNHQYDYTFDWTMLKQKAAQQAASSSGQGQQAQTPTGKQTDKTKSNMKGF
# T1 sequence (Q96SW2 whole entry): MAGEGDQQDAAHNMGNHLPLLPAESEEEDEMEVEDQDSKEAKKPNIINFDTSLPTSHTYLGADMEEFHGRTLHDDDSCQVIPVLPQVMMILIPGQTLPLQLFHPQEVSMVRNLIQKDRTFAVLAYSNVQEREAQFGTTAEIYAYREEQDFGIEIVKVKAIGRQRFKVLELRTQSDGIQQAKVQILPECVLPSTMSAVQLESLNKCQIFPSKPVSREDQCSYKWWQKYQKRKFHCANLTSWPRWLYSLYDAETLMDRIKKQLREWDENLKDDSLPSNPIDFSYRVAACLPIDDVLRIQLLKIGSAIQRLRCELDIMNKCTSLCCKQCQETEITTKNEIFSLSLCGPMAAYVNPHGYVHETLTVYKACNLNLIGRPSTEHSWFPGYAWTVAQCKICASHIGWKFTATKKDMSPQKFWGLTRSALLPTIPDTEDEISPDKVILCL
# T1 sequence (Q16531 whole entry partner): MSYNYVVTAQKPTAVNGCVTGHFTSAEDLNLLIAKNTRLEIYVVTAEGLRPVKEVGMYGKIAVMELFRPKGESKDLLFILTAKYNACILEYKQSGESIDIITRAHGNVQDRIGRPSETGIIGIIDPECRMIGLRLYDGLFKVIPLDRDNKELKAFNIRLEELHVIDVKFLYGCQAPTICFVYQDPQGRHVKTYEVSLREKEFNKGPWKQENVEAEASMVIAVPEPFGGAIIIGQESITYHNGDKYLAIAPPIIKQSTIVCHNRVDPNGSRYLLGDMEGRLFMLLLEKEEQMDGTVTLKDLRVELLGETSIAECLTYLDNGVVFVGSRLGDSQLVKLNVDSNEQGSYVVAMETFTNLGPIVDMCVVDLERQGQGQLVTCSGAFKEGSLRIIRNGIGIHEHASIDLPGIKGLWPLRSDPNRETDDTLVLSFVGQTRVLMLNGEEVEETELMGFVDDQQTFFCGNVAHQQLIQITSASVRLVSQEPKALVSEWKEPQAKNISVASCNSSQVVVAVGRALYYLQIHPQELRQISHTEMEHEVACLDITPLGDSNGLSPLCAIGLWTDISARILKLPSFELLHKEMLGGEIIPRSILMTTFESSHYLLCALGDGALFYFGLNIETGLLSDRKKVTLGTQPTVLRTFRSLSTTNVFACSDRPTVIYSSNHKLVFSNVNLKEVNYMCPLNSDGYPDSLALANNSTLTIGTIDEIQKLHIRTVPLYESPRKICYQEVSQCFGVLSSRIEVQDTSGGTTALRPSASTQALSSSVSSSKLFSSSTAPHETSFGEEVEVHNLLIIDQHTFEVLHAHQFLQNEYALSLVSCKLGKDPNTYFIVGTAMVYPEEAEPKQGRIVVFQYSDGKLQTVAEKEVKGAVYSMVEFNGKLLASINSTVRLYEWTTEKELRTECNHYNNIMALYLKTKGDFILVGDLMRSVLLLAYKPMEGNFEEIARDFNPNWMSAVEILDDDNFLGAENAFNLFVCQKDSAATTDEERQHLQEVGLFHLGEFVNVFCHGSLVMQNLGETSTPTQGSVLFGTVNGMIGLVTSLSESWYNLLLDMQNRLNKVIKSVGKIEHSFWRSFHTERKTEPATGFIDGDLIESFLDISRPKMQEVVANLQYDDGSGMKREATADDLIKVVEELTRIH
# Chain of GSPT1 (P15170 whole entry): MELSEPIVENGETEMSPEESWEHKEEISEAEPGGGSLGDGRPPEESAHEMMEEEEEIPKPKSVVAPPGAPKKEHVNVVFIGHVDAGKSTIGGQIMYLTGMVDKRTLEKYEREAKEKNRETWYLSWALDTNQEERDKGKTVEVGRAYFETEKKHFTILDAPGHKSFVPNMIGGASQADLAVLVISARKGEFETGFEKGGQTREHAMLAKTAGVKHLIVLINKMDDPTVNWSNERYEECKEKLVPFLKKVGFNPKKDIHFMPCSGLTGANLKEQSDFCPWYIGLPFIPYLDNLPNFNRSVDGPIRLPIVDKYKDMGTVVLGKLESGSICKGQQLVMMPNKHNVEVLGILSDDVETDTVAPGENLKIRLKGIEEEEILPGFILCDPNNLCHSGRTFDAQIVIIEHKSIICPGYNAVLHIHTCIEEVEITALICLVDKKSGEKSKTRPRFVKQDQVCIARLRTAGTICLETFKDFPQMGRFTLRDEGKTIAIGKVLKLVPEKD
# Chain of GSPT1 (Q96SW2 whole entry): as the sequence (Q96SW2 whole entry) above
# Chain of GSPT1 (Q16531 whole entry partner): as the sequence (Q16531 whole entry partner) above
Structure (SMILES),CK1α Ymin (CK1α),DC50 (CK1α) [nM],DC50 (GSPT1) [nM],GSPT1 Ymin (GSPT1)
"Cn1cc(-c2ccc3c(c2)CN(C2CCC(=O)NC2=O)C3=O)nc1-c1ccc(C(F)(F)F)cc1 (centres unmarked) [Example 209, 3-(5-(1-methyl-2-(4-(trifluoromethyl)phenyl)-1H-imidazol-4-yl)-1-oxoisoindolin-2-yl)piperidine-2,6-dione]",C (C = 0-10% remaining),< 25,≥ 25,F (F = >75-100% remaining)
"O=C1CCC(N2Cc3cc(-c4cc(-c5ccccc5)[nH]n4)ccc3C2=O)C(=O)N1 (centres unmarked) [Example 210, 3-(1-Oxo-5-(5-phenyl-1H-pyrazol-3-yl)isoindolin-2-yl)piperidine-2,6-dione]",D (D = >10- 25% remaining),< 25,≥ 25,F (F = >75-100% remaining)
"Cc1c(-c2ccc3c(c2)CN(C2CCC(=O)NC2=O)C3=O)nn(C)c1-c1ccccc1 (centres unmarked) [Example 211, 3-(5-(1,4-Dimethyl-5-phenyl-1H-pyrazol-3-yl)-1-oxoisoindolin-2-yl)piperidine-2,6-dione]",C (C = 0-10% remaining),< 25,≥ 25,F (F = >75-100% remaining)
Cc1cc(-c2c(-c3ccc4c(c3)CN(C3CCC(=O)NC3=O)C4=O)cnn2C)c(C)s1 (centres unmarked) [Example 213],E (E = >25-75% remaining),< 25,≥ 25,F (F = >75-100% remaining)
Cn1ncc(-c2ccc3c(c2)CN(C2CCC(=O)NC2=O)C3=O)c1-c1ccc(CN2CCOCC2)cc1 (centres unmarked) [Example 214],E (E = >25-75% remaining),< 25,≥ 25,F (F = >75-100% remaining)
Cc1ccc(-c2c(-c3ccc4c(c3)CN(C3CCC(=O)NC3=O)C4=O)cnn2C)s1 (centres unmarked) [Example 215],D (D = >10- 25% remaining),< 25,≥ 25,F (F = >75-100% remaining)
Cn1ncc(-c2ccc3c(c2)CN(C2CCC(=O)NC2=O)C3=O)c1-c1ccc(Cl)cc1 (centres unmarked) [Example 216],E (E = >25-75% remaining),< 25,≥ 25,F (F = >75-100% remaining)
CN1CCN(c2ccc(-c3c(-c4ccc5c(c4)CN(C4CCC(=O)NC4=O)C5=O)cnn3C)cc2)CC1 (centres unmarked) [Example 217],D (D = >10- 25% remaining),< 25,≥ 25,F (F = >75-100% remaining)
Cn1ncc(-c2ccc3c(c2)CN(C2CCC(=O)NC2=O)C3=O)c1-c1ccc2[nH]ccc2c1 (centres unmarked) [Example 218],D (D = >10- 25% remaining),≥ 25,≥ 25,F (F = >75-100% remaining)
Cn1ncc(-c2ccc3c(c2)CN(C2CCC(=O)NC2=O)C3=O)c1-c1cccc(O)c1 (centres unmarked) [Example 219],C (C = 0-10% remaining),< 25,≥ 25,F (F = >75-100% remaining)
Cn1ncc(-c2ccc3c(c2)CN(C2CCC(=O)NC2=O)C3=O)c1-c1ccc(OCCCN2CCOCC2)cc1 (centres unmarked) [Example 220],E (E = >25-75% remaining),< 25,≥ 25,F (F = >75-100% remaining)
Cn1ncc(-c2ccc3c(c2)CN(C2CCC(=O)NC2=O)C3=O)c1-c1ccc(S(C)(=O)=O)cc1 (centres unmarked) [Example 221],E (E = >25-75% remaining),≥ 25,≥ 25,F (F = >75-100% remaining)
COc1ccc(-c2c(-c3ccc4c(c3)CN(C3CCC(=O)NC3=O)C4=O)cnn2C)cc1O (centres unmarked) [Example 222],C (C = 0-10% remaining),< 25,≥ 25,F (F = >75-100% remaining)
Cn1ncc(-c2ccc3c(c2)CN(C2CCC(=O)NC2=O)C3=O)c1-c1ccc(C#N)cc1F (centres unmarked) [Example 225],E (E = >25-75% remaining),≥ 25,≥ 25,F (F = >75-100% remaining)
Cn1cnc(-c2ccc3c(c2)CN(C2CCC(=O)NC2=O)C3=O)c1-c1ccsc1 (centres unmarked) [Example 226],C (C = 0-10% remaining),< 25,< 25,E (E = >25-75% remaining)
Cc1ccc(-c2c(-c3ccc4c(c3)CN(C3CCC(=O)NC3=O)C4=O)ncn2C)cc1 (centres unmarked) [Example 227],D (D = >10- 25% remaining),< 25,< 25,E (E = >25-75% remaining)
Cn1cnc(-c2ccc3c(c2)CN(C2CCC(=O)NC2=O)C3=O)c1-c1cccc(O)c1 (centres unmarked) [Example 228],C (C = 0-10% remaining),< 25,≥ 25,D (D = >10- 25% remaining)
Cc1ccc(-c2c(-c3ccc4c(c3)CN(C3CCC(=O)NC3=O)C4=O)ncn2C)s1 (centres unmarked) [Example 229],C (C = 0-10% remaining),< 25,< 25,E (E = >25-75% remaining)
Cc1csc(-c2c(-c3ccc4c(c3)CN(C3CCC(=O)NC3=O)C4=O)ncn2C)c1 (centres unmarked) [Example 230],C (C = 0-10% remaining),< 25,< 25,E (E = >25-75% remaining)

# Now from value to compound:
CK1α Ymin (CK1α),DC50 (CK1α) [nM],DC50 (GSPT1) [nM],GSPT1 Ymin (GSPT1),Structure (SMILES)
D (D = >10- 25% remaining),< 25,≥ 25,F (F = >75-100% remaining),Cc1sccc1-c1c(-c2ccc3c(c2)CN(C2CCC(=O)NC2=O)C3=O)ncn1C (centres unmarked) [Example 231]
D (D = >10- 25% remaining),< 25,≥ 25,F (F = >75-100% remaining),Cn1cnc(-c2ccc3c(c2)CN(C2CCC(=O)NC2=O)C3=O)c1-c1cccc(C#N)c1 (centres unmarked) [Example 232]
D (D = >10- 25% remaining),< 25,≥ 25,F (F = >75-100% remaining),Cn1cnc(-c2ccc3c(c2)CN(C2CCC(=O)NC2=O)C3=O)c1-c1ccccc1C#N (centres unmarked) [Example 233]
D (D = >10- 25% remaining),< 25,≥ 25,F (F = >75-100% remaining),Cc1ccc(C)c(-c2c(-c3ccc4c(c3)CN(C3CCC(=O)NC3=O)C4=O)ncn2C)c1 (centres unmarked) [Example 234]
D (D = >10- 25% remaining),< 25,≥ 25,F (F = >75-100% remaining),COc1ccccc1-c1c(-c2ccc3c(c2)CN(C2CCC(=O)NC2=O)C3=O)ncn1C (centres unmarked) [Example 235]
C (C = 0-10% remaining),< 25,≥ 25,E (E = >25-75% remaining),Cn1cnc(-c2ccc3c(c2)CN(C2CCC(=O)NC2=O)C3=O)c1-c1ccc(CO)cc1 (centres unmarked) [Example 236]
E (E = >25-75% remaining),< 25,≥ 25,F (F = >75-100% remaining),Cc1ccc(F)cc1-c1c(-c2ccc3c(c2)CN(C2CCC(=O)NC2=O)C3=O)ncn1C (centres unmarked) [Example 237]
D (D = >10- 25% remaining),< 25,≥ 25,F (F = >75-100% remaining),Cc1cc(-c2c(-c3ccc4c(c3)CN(C3CCC(=O)NC3=O)C4=O)ncn2C)ccc1F (centres unmarked) [Example 238]
C (C = 0-10% remaining),< 25,< 25,F (F = >75-100% remaining),Cc1ccc(-c2c(-c3ccc4c(c3)CN(C3CCC(=O)NC3=O)C4=O)ncn2C)c(F)c1 (centres unmarked) [Example 239]
D (D = >10- 25% remaining),< 25,< 25,E (E = >25-75% remaining),Cc1ccc(-c2c(-c3ccc4c(c3)CN(C3CCC(=O)NC3=O)C4=O)ncn2C)cc1F (centres unmarked) [Example 240]
D (D = >10- 25% remaining),< 25,≥ 25,F (F = >75-100% remaining),Cc1cc(-c2c(-c3ccc4c(c3)CN(C3CCC(=O)NC3=O)C4=O)ncn2C)c(C)s1 (centres unmarked) [Example 241]
D (D = >10- 25% remaining),< 25,< 25,F (F = >75-100% remaining),Cn1cnc(-c2ccc3c(c2)CN(C2CCC(=O)NC2=O)C3=O)c1-c1cccc(F)c1F (centres unmarked) [Example 242]
E (E = >25-75% remaining),≥ 25,≥ 25,F (F = >75-100% remaining),Cc1ccc(C#N)cc1-c1c(-c2ccc3c(c2)CN(C2CCC(=O)NC2=O)C3=O)ncn1C (centres unmarked) [Example 243]
D (D = >10- 25% remaining),< 25,≥ 25,F (F = >75-100% remaining),Cc1ccc(-c2c(-c3ccc4c(c3)CN(C3CCC(=O)NC3=O)C4=O)ncn2C)c(C#N)c1 (centres unmarked) [Example 244]
E (E = >25-75% remaining),< 25,≥ 25,F (F = >75-100% remaining),Cn1cnc(-c2ccc3c(c2)CN(C2CCC(=O)NC2=O)C3=O)c1-c1ccc2c(c1)OCC2 (centres unmarked) [Example 245]
E (E = >25-75% remaining),< 25,≥ 25,F (F = >75-100% remaining),CC(C)c1ccc(-c2c(-c3ccc4c(c3)CN(C3CCC(=O)NC3=O)C4=O)ncn2C)cc1 (centres unmarked) [Example 246]
E (E = >25-75% remaining),< 25,≥ 25,,Cn1cnc(-c2ccc3c(c2)CN(C2CCC(=O)NC2=O)C3=O)c1-c1cccc(C#N)c1F (centres unmarked) [Example 247]
